In patent publication US7642354B2, “Polycyclic pyrazines as potassium ion channel modulators” (Icagen, Inc., priority 2004, dated 2010):
Values joined by “and” are separate entries in the source; they are usually repeats but may differ in a detail not shown here. Identical values can stand only once.

Target: hSK2 (Homo sapiens, UniProt Q9H2S1)
Test: Assay for compound activity towards hSK channels (86Rb+ efflux)
Format: cell-based
Settings: 86Rb+ efflux stimulated with calcium ionophore; drug 0.01 to 30 μM in EBSS; read-out: hSK2 Inhibitory Activity
Experimental: 18.1 Assay for Compound Activity Towards hSK Channels Cells expressing small conductance, calcium activated potassium channels, such as SK-like channels were loaded with ^86Rb^+ by culture in media containing ^86RbCl. Following loading, the culture media was removed and the cells were washed in EBSS to remove residual traces of ^86Rb^+. Cells were preincubated with the drug (0.01 to 30 μM in EBSS) and then ^86Rb^+ efflux was stimulated by exposing cells to EBSS solution supplemented with a calcium ionophore, such as ionomycin, in the continued presence of the drug. After a suitable efflux period, the EBSS/ionophore solution was removed from the cells and the ^86Rb^+ content was determined by Cherenkov counting (Wallac Trilux). Cells were then lysed with a SDS solution and the ^86Rb^+ content of the lysate was determined. Percent ^86Rb^+ efflux was calculated according to the following equation: (^86Rb^+ content in EBSS/(^86Rb^+ content in EBSS+^86Rb^+ content of the lysate))×100

| Compound | IC50 |
| --- | --- |
| CCOC(=O)c1c[nH]nc1Nc1cncc(-c2ccccn2)n1 [3-(6-Pyridin-2-yl-pyrazin-2-ylamino)-1H-pyrazole-4-carboxylic acid ethyl ester] | 3 to 30 µM |
| N#Cc1cncnc1Nc1cncc(-c2ccccn2)n1 [4-(6-Pyridin-2-yl-pyrazin-2-ylamino)-pyrimidine-5-carbonitrile] | 3 to 30 µM |
| CN1CCN(c2ccc(Nc3cncc(-c4ccccn4)n3)nc2)C(=O)C1 [4-Methyl-1-[6-(6-pyridin-2-yl-pyrazin-2-ylamino)-pyridin-3-yl]-piperazin-2-one] | 3 to 30 µM |
| CCOC(=O)c1sc(Nc2cncc(-c3ccccn3)n2)nc1-c1ccccc1 [4-Phenyl-2-(6-pyridin-2-yl-pyrazin-2-ylamino)-thiazole-5-carboxylic acid ethyl ester] | 3 to 30 µM |
| NC(=O)c1ncc(-c2ccccn2)nc1Nc1ccccn1 [5-Pyridin-2-yl-3-(pyridin-2-ylamino)-pyrazine-2-carboxylic acid amide] | 3 to 30 µM |
| NC(=O)c1ccc(Nc2cncc(-c3ccccn3)n2)nc1 [6-(6-Pyridin-2-yl-pyrazin-2-ylamino)-nicotinamide] | 3 to 30 µM |
| Cn1c(Nc2cncc(-c3ccccn3)n2)nc2ccccc21 [(1-Methyl-1H-benzoimidazol-2-yl)-(6-pyridin-2-yl-pyrazin-2-yl)-amine] | 3 to 30 µM |
| [O-][n+]1ccccc1Nc1cncc(-c2ccccn2)n1 [(1-Oxy-pyridin-2-yl)-(6-pyridin-2-yl-pyrazin-2-yl)-amine] | 3 to 30 µM |
| Cc1cc(Nc2cncc(-c3ccccn3)n2)c2ccccc2n1 [(2-Methyl-quinolin-4-yl)-(6-pyridin-2-yl-pyrazin-2-yl)-amine] | 3 to 30 µM |
| Cc1noc(Nc2cncc(-c3ccccn3)n2)c1C [(3,4-Dimethyl-isoxazol-5-yl)-(6-pyridin-2-yl-pyrazin-2-yl)-amine] | 3 to 30 µM |
| c1ccc(COc2cccnc2Nc2cncc(-c3ccccn3)n2)cc1 [(3-Benzyloxy-pyridin-2-yl)-(6-pyridin-2-yl-pyrazin-2-yl)-amine] | 3 to 30 µM |
| FC(F)(F)c1cnc(Nc2cncc(-c3ccccn3)n2)c(Cl)c1 [(3-Chloro-5-trifluoromethyl-pyridin-2-yl)-(6-pyridin-2-yl-pyrazin-2-yl)-amine] | 3 to 30 µM |
| CCCCCOc1cccnc1Nc1cncc(-c2ccccn2)n1 [(3-Pentyloxy-pyridin-2-yl)-(6-pyridin-2-yl-pyrazin-2-yl)-amine] | 3 to 30 µM |
| COc1cc(OC)nc(Nc2cncc(-c3ccccn3)n2)n1 [(4,6-Dimethoxy-pyrimidin-2-yl)-(6-pyridin-2-yl-pyrazin-2-yl)-amine] | 3 to 30 µM |
| Cc1ccnc(Nc2cncc(-c3ccccn3)n2)c1[N+](=O)[O-] [(4-Methyl-3-nitro-pyridin-2-yl)-(6-pyridin-2-yl-pyrazin-2-yl)-amine] | 3 to 30 µM |
| c1ccc(-c2csc(Nc3cncc(-c4ccccn4)n3)n2)cc1 [(4-Phenyl-thiazol-2-yl)-(6-pyridin-2-yl-pyrazin-2-yl)-amine] | 3 to 30 µM |
| Brc1ccc(Nc2cnc(Br)c(-c3ccccn3)n2)nc1 [(5-Bromo-pyridin-2-yl)-(5-bromo-6-pyridin-2-yl-pyrazin-2-yl)-amine] | 3 to 30 µM |
| COc1cccc(-c2cncc(Nc3ccc(Cl)cn3)n2)n1 [(5-Chloro-pyridin-2-yl)-[6-(6-methoxy-pyridin-2-yl)-pyrazin-2-yl]-amine] | 3 to 30 µM |
| Fc1ccc(Nc2cncc(-c3ccccn3)n2)nc1 [(5-Fluoro-pyridin-2-yl)-(6-pyridin-2-yl-pyrazin-2-yl)-amine] | 0.05 to 1 µM and 1 to 3 µM |
| Fc1ccc(Nc2cncc(-c3cc(N4CCCC4)ccn3)n2)nc1 [(5-Fluoro-pyridin-2-yl)-[6-(4-pyrrolidin-1-yl-pyridin-2-yl)-pyrazin-2-yl]-amine] | 3 to 30 µM |
| Cc1ccc(-c2cncc(Nc3ccc(F)cn3)n2)nc1 [(5-Fluoro-pyridin-2-yl)-[6-(5-methyl-pyridin-2-yl)-pyrazin-2-yl]-amine] | 3 to 30 µM |
| c1ccc(-c2cncc(Nc3cc(-c4ccco4)n[nH]3)n2)nc1 [(5-Furan-2-yl-2H-pyrazol-3-yl)-(6-pyridin-2-yl-pyrazin-2-yl)-amine] | 3 to 30 µM |

More lines, now with the values ahead:

| IC50 | Compound |
| --- | --- |
| 3 to 30 µM | NC(=O)c1cnn(-c2ccccc2)c1Nc1cncc(-c2ccccn2)n1 [1-Phenyl-5-(6-pyridin-2-yl-pyrazin-2-ylamino)-1H-pyrazole-4-carboxylic acid amide] |
| 3 to 30 µM | CCOC(=O)c1cnn(-c2ccccc2)c1Nc1cncc(-c2ccccn2)n1 [1-Phenyl-5-(6-pyridin-2-yl-pyrazin-2-ylamino)-1H-pyrazole-4-carboxylic acid ethyl ester] |
| 3 to 30 µM | CC(=O)c1sc(Nc2cncc(-c3ccccn3)n2)nc1C [1-[4-Methyl-2-(6-pyridin-2-yl-pyrazin-2-ylamino)-thiazol-5-yl]ethanone] |
| < 0.05 µM | O=C1CCCN1c1ccc(Nc2cncc(-c3ccccn3)n2)nc1 [1-[6-(6-Pyridin-2-yl-pyrazin-2-ylamino)-pyridin-3-yl]-pyrrolidin-2-one] |
| 0.05 to 1 µM | O=C1CCCN1c1ccc(Nc2cncc(-c3nccs3)n2)nc1 [1-[6-(6-Thiazol-2-yl-pyrazin-2-ylamino)-pyridin-3-yl]-pyrrolidin-2-one] |
| 0.05 to 1 µM | Cc1cnn(-c2cncc(Nc3ccc(N4CCCC4=O)cn3)n2)c1 [1-{6-[6-(4-Methyl-pyrazol-1-yl)-pyrazin-2-ylamino]-pyridin-3-yl}-pyrrolidin-2-one] |
| 3 to 30 µM | COc1cccc(-c2cncc(-c3cccc(OC)n3)n2)n1 [2,6-Bis-(6-methoxy-pyridin-2-yl)-pyrazine] |
| 3 to 30 µM | Oc1cccnc1Nc1cncc(-c2ccccn2)n1 [2-(6-Pyridin-2-yl-pyrazin-2-ylamino)-pyridin-3-ol] |
| 1 to 3 µM | Brc1ncc(-c2ccccn2)nc1Nc1ccccn1 [(3-Bromo-6-pyridin-2-yl-pyrazin-2-yl)-pyridin-2-yl-amine] |
| 0.05 to 1 µM | CC1CCN(c2ccc(Nc3cncc(-c4ccccn4)n3)nc2)CC1 [(4-Methyl-3,4,5,6-tetrahydro-2H-[1,3′]bipyridinyl-6′-yl)-(6-pyridin-2-yl-pyrazin-2-yl)-amine] |
| < 0.05 µM | Cc1ccnc(Nc2cncc(-c3ccccn3)n2)c1 [(4-Methyl-pyridin-2-yl)-(6-pyridin-2-yl-pyrazin-2-yl)-amine] |
| 0.05 to 1 µM | Cc1ccnc(Nc2cncc(-c3cc(N4CCCC4)ccn3)n2)c1 [(4-Methyl-pyridin-2-yl)-[6-(4-pyrrolidin-1-yl-pyridin-2-yl)-pyrazin-2-yl]-amine] |
| 0.05 to 1 µM | Brc1ccc(Nc2cncc(-c3ccccn3)n2)nc1 [(5-Bromo-pyridin-2-yl)-(6-pyridin-2-yl-pyrazin-2-yl)-amine] |
| 0.05 to 1 µM | Clc1ccc(Nc2cncc(-c3ccccn3)n2)nc1 [(5-Chloro-pyridin-2-yl)-(6-pyridin-2-yl-pyrazin-2-yl)-amine] |
| 1 to 3 µM | Clc1ccc(Nc2cncc(-c3cc(N4CCCC4)ccn3)n2)nc1 [(5-Chloro-pyridin-2-yl)-[6-(4-pyrrolidin-1-yl-pyridin-2-yl)-pyrazin-2-yl]-amine] |
| 0.05 to 1 µM | Cc1ccnc(-c2cncc(Nc3ccc(F)cn3)n2)c1 [(5-Fluoro-pyridin-2-yl)-[6-(4-methyl-pyridin-2-yl)-pyrazin-2-yl]-amine] |
| 0.05 to 1 µM | c1ccc(-c2cncc(Nc3ccc(-c4ccco4)cn3)n2)nc1 [(5-Furan-2-yl-pyridin-2-yl)-(6-pyridin-2-yl-pyrazin-2-yl)-amine] |
